Experiments:
Type in all cases: in vivo, Duroc swine
[1] = Serum arginine levels after intravenous citrulline in piglets; details: citrulline 600 mg/kg IV
Experimental: (§1) Intravenous citrulline has not been previously used in a clinical model. This Example assessed the safety of IV citrulline and its effect on serum arginine levels in piglets. A total of 9 Duroc swine, aged 5-21 days, with a target minimum weight of 4 kg were utilized. All piglets underwent anesthetic induction and tracheostomy. Central lines were placed in the femoral artery and femoral vein and hemodynamics monitored continuously. Citrulline (600 mg/kg IV) was administered to 5 piglets. Saline was given to control animals. Serum amino acids were drawn before and each hour after citrulline administration.

[2] = Hemodynamic monitoring (mean arterial blood pressure) after IV citrulline in piglets; details: citrulline 600 mg/kg IV
Experimental: as §1

[3] = Pharmacokinetics of plasma citrulline and arginine after single dose of IV citrulline; details: piglets, single dose IV citrulline 600 mg/kg
Experimental: as §1
Pharmacokinetics: Based on the above data, the pharmacokinetics were calculated for both plasma citrulline and arginie levels after the single dose of IV citrulline. Pharmacokinetic data included plasma half-life (t½), elimination constant (Kel), volume of distribution (Vd), and plasma clearance (CLp).

NC(=O)NCCC[C@H](N)C(=O)O [Citrulline, citrulline]
Time of peak serum arginine levels following IV citrulline administration [1]: 1 to 2 h | Arginine Levels Following IV Citrulline, 1 hour post ([1]; 1 hour post, serum): 535.0 µmol/L | Arginine Levels Following IV Citrulline, 2 hours post ([1]; 2 hours post, serum): 559.8 µmol/L | Arginine Levels Following IV Citrulline, 3 hours post ([1]; 3 hours post, serum): 498.4 µmol/L | Arginine Levels Following IV Citrulline, Baseline ([1]; baseline (before administration), serum): 131.5 µmol/L | Mean Arterial Blood Pressures Following IV Citrulline, 1 hour post ([2]; 1 hour post): 67.4 mmHg | Mean Arterial Blood Pressures Following IV Citrulline, 2 hours post ([2]; 2 hours post): 64.8 mmHg | Mean Arterial Blood Pressures Following IV Citrulline, 3 hours post ([2]; 3 hours post): 62.2 mmHg | Hemodynamic instability ([2]; hemodynamics monitored continuously): No hemodynamic instability was observed | Mean Arterial Blood Pressures Following IV Citrulline, Pre-dose ([2]; pre-dose): 67.0 mmHg | half-life ([3]; Duroc, pig, plasma, read-out: Plasma citrulline half-life (t½) (converted)): 1.5 h | clearance ([3]; Duroc, pig, plasma, read-out: Plasma citrulline plasma clearance (CLp) (converted)): 17.5 mL/min | Vd ([3]; Duroc, pig, plasma, read-out: Plasma citrulline volume of distribution (Vd)): 2.25 L | Plasma citrulline elimination constant (Kel) [3]: 0.462 h⁻¹

Source: patent publication US8536225B2, “Therapeutic methods employing nitric oxide precursors” (Vanderbilt University, priority 1999, dated 2013)
